From paper PMC4992173, “Divergent synthesis and identification of the cellular targets of deoxyelephantopins” (Nature Communications, 2016)

Legend:
[1] = target: T1, Cystathionine beta-synthase (CBS) (Homo sapiens, UniProt P35520); test: In situ competitive profiling in live MCF7 cells (LFQ): CBS; format: cell-based; conditions: protein CBS, 4 h, then 10 µM 24c, n=4
T1 construct: endogenous in cells; host or cells: MCF7
Description: (§1) In our efforts to determine the direct molecular targets of deoxyelephantopin we first performed a gel-based competitive in situ proteomic profiling assay[41] […] While the greater conformational flexibility of probe 24c could potentially lead to more promiscuous target engagement relatively to deoxyelephantopin, it was favoured based on the fact that an alkyne moiety appended to the rigid scaffold of deoxyelephantopin may hinder some of its interactions. MCF7 cells were pretreated with various concentrations of deoxyelephantopin for 4 h, harvested, lysed and the lysates were treated with the fluorogenic probe 24c-Cy3 (10 μM; Supplementary Fig. 10). […] Furthermore, cells were pretreated with 20 μM concentration of deoxyelephantopin or 24c and the proteomic profiles were compared (Fig. 6b, Supplementary Fig. 11). Multiple bands were detected that were equally competed by both DEP and 24c, thus again confirming that 24c can be used as an acceptable clickable analogue of deoxyelephantopin in pulldown assays. Having established the optimal labelling conditions by SDS–PAGE, we next carried out a mass spectrometry-based competitive profiling assay[42] coupled with the method of stable isotope labelling of amino acids in culture (SILAC)[43]. […]
(§2) Figure 6 Proteome-wide identification of deoxyelephantopin targets. […] Quantification was performed using label-free quantification (LFQ) method (n=4). […]

[2] = target: T2, Thioredoxin domain-containing protein 12 (TXNDC12) (Homo sapiens, UniProt O95881); test: In situ competitive profiling in live MCF7 cells (LFQ): TXNDC12; format: cell-based; conditions: 4 h, then 10 µM 24c, n=4
T2 construct: endogenous in cells; host or cells: MCF7
T2 sequence (O95881 27-172): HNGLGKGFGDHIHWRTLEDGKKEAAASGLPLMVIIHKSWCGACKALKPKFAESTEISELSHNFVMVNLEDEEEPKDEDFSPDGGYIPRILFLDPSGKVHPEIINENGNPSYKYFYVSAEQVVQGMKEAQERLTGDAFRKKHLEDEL
Description: as §1, §2

T1 sequence (P35520 whole entry): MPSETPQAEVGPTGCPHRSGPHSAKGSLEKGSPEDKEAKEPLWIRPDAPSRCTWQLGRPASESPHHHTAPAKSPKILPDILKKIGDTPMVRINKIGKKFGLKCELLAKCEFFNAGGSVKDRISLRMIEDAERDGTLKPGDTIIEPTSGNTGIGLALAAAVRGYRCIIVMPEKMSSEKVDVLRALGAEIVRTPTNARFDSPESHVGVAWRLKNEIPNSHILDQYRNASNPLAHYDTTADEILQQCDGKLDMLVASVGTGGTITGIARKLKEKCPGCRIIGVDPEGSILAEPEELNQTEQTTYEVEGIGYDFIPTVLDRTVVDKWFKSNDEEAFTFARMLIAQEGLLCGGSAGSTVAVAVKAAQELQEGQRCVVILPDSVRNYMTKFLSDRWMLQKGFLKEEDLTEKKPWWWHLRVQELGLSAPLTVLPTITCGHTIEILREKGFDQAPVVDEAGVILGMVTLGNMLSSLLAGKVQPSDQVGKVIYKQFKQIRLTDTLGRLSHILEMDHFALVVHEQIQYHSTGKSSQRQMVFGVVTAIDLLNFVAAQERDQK

C=C(C)C(=O)O[C@H]1CC2=C[C@@H](C/C(C)=C/[C@H]3OC(=O)C(=C)[C@H]13)OC2=O [deoxyelephantopin]
LFQ ratio 20 µM Deoxyelephantopin/DMSO with 24c [1]: 0.00
LFQ ratio 20 µM Deoxyelephantopin/DMSO with 24c [2]: 0.0425
